Experimental data published in patent publication US12617864B2, “Methods of activating and proliferating exhausted CD8 T cells, CD8 T cells with enhanced activity prepared by the same, and uses thereof” (Medgene Therapeutics, Inc., priority 2021, dated 2026).

Legend:
MC38 cancer cells = assay: Mouse tumor model: MC38 in Rag2 KO mice given CD8 T cells treated with APTO-253; details: 5×10^5 CD8 T cells treated ex vivo with APTO-253 for 3 days, i.v. the day after 3×10^5 MC38; until day 15; vs PBS-treated CD8 T cells
Procedure: (§1) Accordingly, in the same manner as above, after separating naïve CD8 T cells, naïve CD8 T cells were seeded on a plate coated with anti-CD3 antibody and in the process of activation, anti-CD28 antibody (2 μg/ml) and mIL-2 (100 U/ml) was treated with 3 μM of APTO-253 (MedChemExpress, LLC). Then, it was cultured for 72 hours in a 37° C. 5% CO2 cell incubator. After completion of the culture, the cells were transferred to a 15 ml centrifuge tube, and the volume was adjusted to 3 ml by adding RPMI medium. After that, 3 ml of Histopaque (Sigma) was carefully placed in the lower layer. Then, centrifugation was carried out for 30 minutes at 25° C. at 2,000 rpm, and at this time, acceleration and deceleration were set to a minimum. After centrifugation, the culture solution of the upper layer was removed, and the cells present at the interface were recovered, transferred to a 15 ml centrifuge tube, resuspended in 10 ml of PBS, and centrifuged for 5 minutes at 4° C. and 1,500 rpm. After centrifugation, the supernatant was removed, the cell pellet was washed once more with 10 mL of PBS and centrifuged for 5 minutes at 4° C. and 1,500 rpm. After centrifugation, the supernatant was removed, the cell pellet was resuspended in an appropriate amount of PBS, and the cells were counted. […]

Klf4 gene = Klf4 gene expression in CD8 T cells treated with APTO-253; format: cell-based, mice; details: 3 μM APTO-253 for 3 days (72 hours) during activation; compared to PBS-treated CD8 T cells
Procedure: as §1

[1] = test system: CD8 T cells from OT-I transgenic mice; assay: In vitro exhaustion experiment: repeated OVA peptide stimulation of CD8 T cells, gene expression by qRT-PCR; format: cell-based; details: repeated stimulation+IL-21 treatment group, OVA peptide 10 ng/ml for 5 days
Procedure: To this end, the present inventors specifically isolated CD8 T cells from OT-I transgenic mice having OVA (ovalbumin)-peptide-specific T cell receptor (TCR) and repeatedly treated the OVA peptide for 5 days. All experimental sets were treated with IL-15 (5 ng/ml) and IL-7 (5 ng/ml) to increase the viability of CD8 T cells. After treatment with OVA peptide (10 ng/ml) and washing the next day, stimulation was repeatedly applied for 5 days in such a way that cytokines and OVA peptide were treated with the same composition again (repeated stimulation treatment group). At this time, as a control group, only a cytokine-treated group without OVA peptide treatment and a single stimulation treatment group in which OVA peptide (10 ng/ml) was treated for 2 days and washed, and then only cytokine was treated for 3 days were added. In addition, a set treated with IL-21, which is known to help activate CD8 T cells, was also added (repetitive stimulation+IL-21 treated group) (FIG. 1A). After 5 days, live CD8 T cells were isolated using a cell sorter, RNA was extracted, reverse transcribed into cDNA, and the expression levels of various genes were confirmed by qRT-PCR. […]

| Compound | tumor growth (tumor volume) (MC38 cancer cells) | Klf4 gene expression level in CD8 T cells (Klf4 gene) | expression of the Klf4 gene [1] | expression of the Tox gene ([1]; compared with repeated stimulation group) |
| --- | --- | --- | --- | --- |
| Cc1[nH]c2ccc(F)cc2c1-c1nc2c3cccnc3c3ncccc3c2[nH]1 [APTO-253, 2-(5-fluoro-2-methyl-1H-indol-3-yl)-1H-imidazo[4,5-f][1,10]phenanthroline] | decreased tumor growth | increased Klf4 gene expression level |  |  |
| IL-21: cytokine known to help activate CD8 T cells |  |  | significantly increased | decreased |
